Test results reported in patent publication US7902253B2, “Isoflavone derivatives of tectorigenin, the preparation thereof and the antiviral medicine containing the same as an effective constituent” (priority 2003, dated 2011).
In brackets after ≈: the same amount, converted by molar mass. Several values for one entry are separate records, joined by “and”; a condition that tells them apart may be missing. Equal entries are not always repeated. Where two headings read alike, the source gives them in different places.

Columns and labels:
[1] = solubility test in water (Chinese Pharmacopeia method); conditions: 25° C.±2° C., shaken every five minutes for 30 minutes
[2] = test system: adenovirus type 3 (ADV3); assay type: cell-based
[3] = test system: adenovirus type 7 (ADV7); assay type: cell-based
[4] = test system: Coxsackie virus group B (CoxBV); assay type: cell-based
[5] = test system: influenza virus type A1 (Flu•V A1); assay type: cell-based
[6] = test system: influenza virus type A3 (Flu•V A3); assay type: cell-based
[7] = test system: respiratory syncytial virus (RSV); assay type: cell-based
[8] = test system: HSV-1; assay type: cell-based
[9] = test system: VZV; assay type: cell-based
[10] = test system: Hep-2 cells; experiment: cell toxicity test; conditions: Hep-2, all concentrations tested
[11] = test system: Z-HL16C cells; experiment: cell toxicity test; conditions: all concentrations tested
[12] = solubility in water stated in description and preparation examples; assay type: physicochemical
[13] = test system: coronavirus BJ01 strain; experiment: organism not typed; assay type: cell-based, coronavirus (SARS); conditions: for IC50: Vero C1008, 120 h
[14] = test system: Vero-E6 cell; experiment: toxicity to Vero-E6 cell (CPE, REED-MUENCH); conditions: five days, CPE index
[15] = clarity of injection after adding glucose; assay type: physicochemical
[16] = product of the preparation example (salt as made), read-out: solubility in water

| Compound | Solute: water [1] | cell pathologic change degree [2] | cell pathologic change degree [3] | cell pathologic change degree [4] | cell pathologic change degree [5] | cell pathologic change degree [6] | cell pathologic change degree [7] | cell pathologic change degree [8] | cell pathologic change degree [9] | solubility [12, 16] | IC50 [13] | TD50 (median toxic concentration) [14] | other results |
| --- | --- | --- | --- | --- | --- | --- | --- | --- | --- | --- | --- | --- | --- |
| COc1c(O)cc2occ(-c3ccc(O)cc3)c(=O)c2c1O [Compound (I), 5,7,4′-trihydroxy-6-methoxyl isoflavone, reference compound] | 0.1 mg/mL |  |  |  |  |  |  |  |  |  |  |  |  |
| C=C1CC[C@@H]2[C@](C)(COC(=O)CCC(=O)[O-])[C@H](OC(=O)CCC(=O)[O-])CC[C@@]2(C)[C@@H]1/C=C/C1=CCOC1=O.[K+].[Na+] [Chuanhuning, Potassium Sodium Dehydroandroandrographolide Succinate, reference compound] |  | 2+ and 3+ | 2+ and 3+ | 2+ and 3+ | 2+ and 3+ | 2+ and 3+ | 2+ and 3+ | 1+ and 2+ and 3+ | 1+ and 2+ and 3+ |  |  |  | effect on cytopathogenesis (in words) [2]: inhibiting effect; effect on cytopathogenesis (in words) [3]: inhibiting effect; effect on cytopathogenesis (in words) [4]: inhibiting effect; effect on cytopathogenesis (in words) [5]: inhibiting effect; effect on cytopathogenesis (in words) [6]: inhibiting effect; effect on cytopathogenesis (in words) [7]: inhibiting effect; toxic reaction to cells (in words) [10]: no any toxic reaction; toxic reaction to cells (in words) [11]: no any toxic reaction |
| COc1c(O)cc2occ(-c3ccc(O)c(N)c3)c(=O)c2c1O [Compound (VI)] | 8 mg/mL | 1+ and 2+ and 3+ | 2+ and 3+ | 2+ | 2+ | 1+ and 2+ and 3+ | 2+ and 3+ | 1+ and 2+ and 3+ | 2+ and 3+ | > 1000 µg/mL | 120 µg/mL (≈ 381 µM) | 3.85 mg/mL |  |
| COc1c(O)c(CN(C)C)c2occ(-c3ccc(O)cc3)c(=O)c2c1O [Compound (X)] | 9 mg/mL | 1+ and 2+ and 3+ | 2+ and 3+ | 1+ and 3+ | 2+ | 1+ and 2+ and 3+ | 2+ and 3+ | 1+ and 2+ and 3+ | 1+ and 2+ | > 2000 µg/mL | 119 µg/mL (≈ 332 µM) | 3.95 mg/mL |  |
| COc1c(O)cc2occ(-c3ccc(O)c(S(=O)(=O)[O-])c3)c(=O)c2c1O.[Na+] [Compound (IV), tectorigenin sodium sulfonate] | 67 mg/mL |  |  |  |  |  |  |  |  |  | 97.6 µg/mL | 4.34 mg/mL | solubility ([12]; 60 °C, after heating to 60˜100° C., read-out: water-solubility): 50000 to 60000 µg/mL; solubility ([12]; room temperature, read-out: water-solubility): 20000 µg/mL; clarity of the injection ([15]; 2-15% glucose added, room temperature and low temperature (0° C.-5° C.)): kept clarified; clarity of the injection ([15]; 4% glucose added, room and low (0° C.˜5° C.) temperature): kept clear |
| COc1c(O)c(CN2CCCCC2)c2occ(-c3ccc(O)cc3)c(=O)c2c1O [Compound (IX)] | 8 mg/mL | 1+ and 3+ | 2+ and 3+ | 1+ and 2+ and 3+ | 2+ | 1+ and 2+ and 3+ | 2+ | 2+ | 1+ and 2+ and 3+ | < 1000 µg/mL | 125 µg/mL (≈ 315 µM) | 2.89 mg/mL |  |
| COc1c(O)cc2occ(-c3ccc(OCCN(C)C)cc3)c(=O)c2c1O [Compound (VIII)] | 10 mg/mL | 1+ and 2+ and 3+ | 2+ and 3+ | 1+ and 2+ and 3+ | 2+ | 1+ and 2+ and 3+ | 2+ and 3+ | 1+ and 2+ | 2+ | > 2000 µg/mL | 112 µg/mL (≈ 302 µM) | 3.45 mg/mL |  |
| COc1c(O)cc2occ(-c3ccc(OCC(=O)[O-])cc3)c(=O)c2c1O.[Na+] [Compound (VII)] | 15 mg/mL | 1+ and 2+ | 2+ and 3+ | 1+ and 2+ and 3+ | 2+ | 1+ and 2+ and 3+ | 2+ and 3+ | 1+ | 1+ and 2+ | > 2000 µg/mL | 102 µg/mL | 4.20 mg/mL |  |
| NC(=O)c1ncn([C@@H]2O[C@H](CO)[C@@H](O)[C@H]2O)n1 [Ribavirin, reference compound] |  | 1+ and 2+ and 3+ | 2+ and 3+ | 2+ and 3+ | 1+ and 3+ | 1+ and 3+ | 2+ and 3+ | 1+ and 2+ and 3+ |  |  |  |  | Pathologic change pore/cell pore [13]: 2/4 and 3/4 and 4/4 and 0/4 and 1/4 |
